Results: paper PMC9645390, “Amphiphilic stilbene derivatives attenuate the neurotoxicity of soluble Aβ42 oligomers by controlling their interactions with cell membranes” (Chemical Science, 2022)

Legend:
SH-SY5Y cells = test: Cell toxicity studies in SH-SY5Y cells; type: cell-based, human; conditions: 10 µM
Description: Encouraged by the ability of the developed amphiphilic compounds to attenuate the neurotoxicity of Cu–Aβ species, we sought out to study the possible molecular mechanisms for this beneficial effect. The Aβ oligomers were reported to interact with cell membranes in various ways, such as binding to receptors on cell membranes,[49,50] inserting into membranes,[51] or even showing cellular uptake via endocytosis.[52] The abnormal interactions between Aβ oligomers and neuron cells, which could disrupt the neuronal ion homeostasis and neuron cell membrane integrity, might be why Aβ oligomers are highly neurotoxic.[53–55] Moreover, molecules that can disrupt interactions between oligomers and cell membranes are promising candidates for drug development.[56,57] Thus, we proceeded to probe the interactions of the Aβ42 oligomers with SH-SY5Y cellular membranes, in the absence and presence of the compounds, via confocal microscopy. […] Moreover, a lower concentration of Aβ42 (5 μM) or Aβ42–Cu (5 μM) were chosen to avoid significant cell death (Fig. S9b ^†). Before investigating the neuroprotective effect of our compounds, we have also confirmed that Aβ aggregates interact tightly with the cell membranes, as shown via co-staining with a membrane specific dye (Fig. S10 ^†). Subsequently, SH-SY5Y cells were treated with Aβ oligomers or a combination of Aβ oligomers and compounds for 24 h, followed by the immunofluorescence staining with the CF594-labeled anti-Aβ antibody HJ 3.4 (Fig. 10) and nuclei staining, shown in the red and blue channels, respectively. Compared to the untreated group, the Aβ oligomers were found mainly bound to cell membranes. […] To understand this unusual behavior, we posited that the Aβ oligomers would start the fibrilization process when incubated in the cell media. […] Therefore, we proceeded to probe if our compounds could prevent the binding of Aβ fibrils to cell membranes. […] Given these encouraging results, we moved to study if the amphiphilic compounds can further control the interactions between Cu–Aβ species and cell membranes. Firstly, when SH-SY5Y cells were treated with Aβ monomers for 48 h, the aggregated Aβ species interacting with cell membranes were observed (Fig. 11a). […] However, these aggregates are still smaller than the insoluble fibrils (Fig. S11 ^†), indicating they are still soluble oligomeric Aβ species.
11. Cell toxicity studies in SH-SY5Y cells
Figure S9. Cell toxicity studies in SH-SY5Y cells. a) [ZY- 12-MT] = [ZY-15-OMe] = [ZY-15-MT] = [ZY-5-OMe] =
10 µM. b) Average cell numbers in presence of 5 µM Aβ42 monomer, 5 µM (Aβ42 monomer + Cu2+), 5 µM (Aβ42
monomer + Cu2+ + ZY-15-MT) and 5 µM (Aβ42 monomer + Cu2+ + ZY-15-OMe).
(1 picture or pasted object on this page, not shown here)

[1] = Alamar Blue cytotoxicity assay in N2a cells; type: cell-based, mouse; conditions: mouse, N2a (Neuro2A) neuroblastoma cells, up to 10 μM, 40 h, read-out: cell viability
Method: After confirming these amphiphilic compounds can bind to Aβ species both in vitro and ex vivo, we next investigated whether these compounds could attenuate the toxicity of the Cu–Aβ species, as the Cu^2+ ions were reported to promote the formation of neurotoxic soluble Aβ42 oligomers.[45,46] Firstly, the Alamar Blue cell viability assay was used to measure the cytotoxicity of the compounds at different concentrations ranging from 20 μM to 2 μM in mouse neuroblastoma N2a cells (Fig. 8). […] Considering its high binding affinity to both Aβ fibrils and oligomers, we also further tested its ability to alleviate Cu^2+–Aβ42-induced toxicity. […] The underlying mechanism is unclear, but we propose that these compounds might perform similarly to the toxic oligomers that bind to some cell membrane receptors or insert into the membrane lipids to form porous channels.
Alamar Blue assay was chosen for the cytotoxicity studies.3 Mouse neuroblastoma Neuro2A (N2A) cells were grown with DMEM/10% FBS in a petri dish at 37 °C in a humidified atmosphere with 5% CO2. Then N2A cells were seeded in a 96-well plate (1.0 × 10^4/well). After 24 h incubation, cell media was changed to DMEM/N-2, and N2A cells were incubated for another 1 h. Then the cells were treated with different concentrations of compounds for 40 h, Alamar Blue solution (10 μL) was added, and the cells were incubated for another 90 min at 37 °C. The fluorescence intensity of each well was measured at 590 nm (excitation wavelength = 560 nm).
For the Cu2+-Aβ-induced toxicity studies, cells were treated monomeric Aβ42, Cu2+, monomeric Aβ42 + Cu2+, and monomeric Aβ42 + Cu2+ + compounds, monomeric Aβ42 + Cu2+ + copper chelators (Me2HTACN or Me3TACN), respectively. After 40 h incubation, Alamar Blue solution (10 μL) was added, and the cells were incubated for another 90 min at 37 °C. The fluorescence intensity of each well was measured at 590 nm (excitation wavelength = 560 nm). […]

[2] = target: T1, Aβ plaques in 5xFAD mice brain sections (Homo sapiens, UniProt P05067); test: Fluorescence imaging of 5xFAD mouse brain sections, colocalization with Congo Red; conditions: 9-month-old 5xFAD brain sections; compound 5 μM, Congo red 2.5 μM
T1 construct: aggregated Aβ species were commonly observed in brain sections from 5xFAD transgenic mice; tissue Jackson Laboratories; host or cells: brain sections of 9-month-old 5xFAD transgenic mice
T1 sequence (P05067 672-713 limits assumed): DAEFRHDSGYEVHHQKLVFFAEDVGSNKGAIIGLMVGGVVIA
Method: In order to confirm that the compounds can also bind to native Aβ species, brain sections collected from 9-month-old 5xFAD transgenic mice have been employed in the fluorescence imaging studies. […] The brain sections were first incubated with our compounds, followed by Congo Red (CR), which is a well-established fluorescent probe that can bind to Aβ plaques.[34] The treated brain sections were then imaged using fluorescence microscope. […] Immunostaining with the CF594-conjugated HJ 3.4 antibody (CF594-HJ3.4) was also performed to confirm that these six compounds can bind to Aβ species specifically in the brain sections (Fig. 5). Moreover, the log D values of the compounds were also measured by octanol-PBS partition assays.[35]
Fig. 4 Fluorescence microscopy images of 5xFAD mice brain sections co-incubated with amphiphilic compounds (top), Congo red (middle) and merged images (bottom, along with the Parson's correlation coefficients R). Concentrations: [amphiphilic compounds] = 5 μM, [Congo red] = 2.5 μM; scale bar: 125 μm. TEXT PRINTED IN THE PICTURE: ZY-5-MT: Merged R= 0.84 | ZY-12-DT: Merged R= 0.52 | ZY-12-OMe: Merged R= 0.77 | ZY-15-OMe: Merged R= 0.77 | ZY-17-DT: Merged R= 0.77 | ZY-17-OMe: Merged R= 0.72 […]
Histological Staining of 5×FAD Mice Brain Sections
5xFAD transgenic mice brain sections were blocked with bovine serum albumin (2% BSA in PBS, pH 7.4, 10 min). Then the mice brain sections were transferred to a PBS solution of the compound and incubated for 1 h. After which, the brain sections were transferred to a PBS solution of Congo Red or antibody HJ 3.4 (Professor David Holtzman, 1 μg/ml) and incubated for another 1 h. Then, the brain sections were treated with BSA again (5 min) followed by washing with PBS (3 × 2 min), DI water (3 × 2 min). Finally, the mice brain sections were mounted with non-fluorescent mounting media, and the images were obtained by using EVOS FL Auto 2. ImageJ Fiji program was used for colocalization analysis and determination of the Pearson’s correlation coefficient. The primary

SMILES	toxicity towards SH-SY5Y cells (in words) (SH-SY5Y cells)	viability at 40 h [1] [%]	Pearson's correlation coefficient R, colocalization with Congo Red [2]
COc1cc(/C=C/c2ccc(-c3ccc(N(C)C)cc3)s2)cc(CN2CCN(C)CCN(C)CC2)c1O [ZY-5-OMe]	not toxic towards SH-SY5Y cells	> 80	
CN1CCN(C)CCN(Cc2cc(-c3ccc(/C=C/c4ccc(N(C)C)cc4)s3)ccc2O)CC1 [ZY-12-MT]	not toxic towards SH-SY5Y cells	> 80	
CN1CCN(C)CCN(Cc2cc(/C=C/c3ccc(-c4ccc(C=O)cc4)s3)ccc2O)CC1 [ZY-15-MT]	not toxic towards SH-SY5Y cells	> 80	
COc1cc(/C=C/c2ccc(-c3ccc(C=O)cc3)s2)cc(CN2CCN(C)CCN(C)CC2)c1O [ZY-15-OMe]	not toxic towards SH-SY5Y cells	> 80	0.77
COc1cc(OC)cc(-c2ccc(/C=C/c3cc(CN4CCN(C)CCN(C)CC4)c(O)c(CN4CCN(C)CCN(C)CC4)c3)cc2)c1 [ZY-17-DT]			0.77
COc1cc(OC)cc(-c2ccc(/C=C/c3cc(CN4CCN(C)CCN(C)CC4)c(O)c(OC)c3)cc2)c1 [ZY-17-OMe]			0.72
